The text below walks through data of patent US8871753B2, “Macrocyclic compounds and their use as kinase inhibitors” (Incyte Corporation, priority 2008, dated 2014).

Where a name gives a salt, the structure may show the parent alone.

Holding throughout (type): biochemical
Test [1] concerns the target T1, human JAK1 (a.a. 837-1142) (Homo sapiens, UniProt P23458).
T1 construct: human JAK1 (a.a. 837-1142); His tag (N); made in house; host or cells: insect cells (baculovirus)
As to the kind of experiment: In vitro JAK kinase assay (HTRF, phosphorylation of a biotinylated peptide), JAK1. The following applies: Table B1; read-out: JAK1 IC50. The procedure, abridged:
(§1)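 Phosphorylation of a biotinylated peptide by the JAK kinase domain, detected by HTRF with Eu-Py20 and SA-APC. ATP was 90 μM for JAK1, 30 μM for JAK2 and 3 μM for JAK3. Reactions ran 1 h at room temperature and were stopped with EDTA, followed by 40 min antibody binding.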
(Time-resolved FRET reads energy transfer from a long-lived donor to a nearby acceptor.)

Test [2] addresses T2, human JAK2 (a.a. 828-1132) (Homo sapiens, UniProt O60674).
T2 construct: JAK2 (a.a. 828-1132); His tag (N); made in house; host or cells: insect cells (baculovirus)
Kind of test: In vitro JAK kinase assay (HTRF, phosphorylation of a biotinylated peptide), JAK2. The following applies: Table B1. The procedure, abridged: as §1

The target in test [3] is T3, human JAK3 (a.a. 781-1124) (Homo sapiens, UniProt P52333).
T3 construct: JAK3 (a.a. 781-1124); His tag (N); made in house; host or cells: insect cells (baculovirus)
T3 sequence (P52333 781-1124): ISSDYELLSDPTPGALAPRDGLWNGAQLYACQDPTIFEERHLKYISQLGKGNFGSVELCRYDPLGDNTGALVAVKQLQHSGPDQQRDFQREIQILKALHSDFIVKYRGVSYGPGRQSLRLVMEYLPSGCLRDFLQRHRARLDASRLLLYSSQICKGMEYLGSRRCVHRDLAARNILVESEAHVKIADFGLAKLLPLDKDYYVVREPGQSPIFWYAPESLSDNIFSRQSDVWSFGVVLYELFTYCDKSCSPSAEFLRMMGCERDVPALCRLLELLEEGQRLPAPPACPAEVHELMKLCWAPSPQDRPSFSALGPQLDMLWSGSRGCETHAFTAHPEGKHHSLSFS
As to the kind of experiment: In vitro JAK kinase assay (HTRF, phosphorylation of a biotinylated peptide), JAK3. The following applies: Table B1. The procedure, abridged: as §1

The target in another test is TYK2 (Homo sapiens, UniProt P29597). Kind of test: TYK2 kinase inhibition (Table A1). To be noted: Table B1.
Sequence of TYK2 (P29597 whole entry): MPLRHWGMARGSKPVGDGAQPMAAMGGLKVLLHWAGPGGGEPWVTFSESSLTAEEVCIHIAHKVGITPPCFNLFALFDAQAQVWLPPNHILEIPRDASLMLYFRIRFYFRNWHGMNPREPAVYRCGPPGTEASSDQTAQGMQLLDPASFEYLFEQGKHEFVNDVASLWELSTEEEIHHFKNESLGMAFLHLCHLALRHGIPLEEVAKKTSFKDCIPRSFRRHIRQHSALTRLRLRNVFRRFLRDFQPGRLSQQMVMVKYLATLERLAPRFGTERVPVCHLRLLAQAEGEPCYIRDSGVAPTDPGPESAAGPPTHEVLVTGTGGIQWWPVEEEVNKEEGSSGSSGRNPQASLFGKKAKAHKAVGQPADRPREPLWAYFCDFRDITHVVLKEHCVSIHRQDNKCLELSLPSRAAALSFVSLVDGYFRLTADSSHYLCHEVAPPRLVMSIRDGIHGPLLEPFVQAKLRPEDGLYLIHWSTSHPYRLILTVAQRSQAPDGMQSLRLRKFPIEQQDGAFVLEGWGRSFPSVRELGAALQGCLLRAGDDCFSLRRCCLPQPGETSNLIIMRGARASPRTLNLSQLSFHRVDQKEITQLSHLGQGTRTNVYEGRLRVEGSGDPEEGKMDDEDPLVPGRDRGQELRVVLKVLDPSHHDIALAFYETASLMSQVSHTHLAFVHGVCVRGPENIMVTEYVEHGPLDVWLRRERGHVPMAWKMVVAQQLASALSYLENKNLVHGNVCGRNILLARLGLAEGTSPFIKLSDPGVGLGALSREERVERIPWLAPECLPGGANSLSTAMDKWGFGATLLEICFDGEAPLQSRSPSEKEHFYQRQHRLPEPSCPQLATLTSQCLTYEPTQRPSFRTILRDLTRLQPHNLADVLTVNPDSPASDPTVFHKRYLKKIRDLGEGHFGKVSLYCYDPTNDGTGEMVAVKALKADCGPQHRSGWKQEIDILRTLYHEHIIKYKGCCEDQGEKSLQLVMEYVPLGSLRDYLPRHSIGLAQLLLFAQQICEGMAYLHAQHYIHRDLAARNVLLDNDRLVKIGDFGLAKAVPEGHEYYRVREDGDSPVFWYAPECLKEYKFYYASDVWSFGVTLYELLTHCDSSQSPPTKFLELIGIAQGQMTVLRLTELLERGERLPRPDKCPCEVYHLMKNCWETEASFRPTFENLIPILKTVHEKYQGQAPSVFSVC
The target in test [4] is T4, Recombinant Human Anaplastic Lymphoma Kinase (Homo sapiens, UniProt Q9UM73).
T4 construct: purchased Invitrogen, Carlsbad, Calif
T4 sequence (Q9UM73 19-1620): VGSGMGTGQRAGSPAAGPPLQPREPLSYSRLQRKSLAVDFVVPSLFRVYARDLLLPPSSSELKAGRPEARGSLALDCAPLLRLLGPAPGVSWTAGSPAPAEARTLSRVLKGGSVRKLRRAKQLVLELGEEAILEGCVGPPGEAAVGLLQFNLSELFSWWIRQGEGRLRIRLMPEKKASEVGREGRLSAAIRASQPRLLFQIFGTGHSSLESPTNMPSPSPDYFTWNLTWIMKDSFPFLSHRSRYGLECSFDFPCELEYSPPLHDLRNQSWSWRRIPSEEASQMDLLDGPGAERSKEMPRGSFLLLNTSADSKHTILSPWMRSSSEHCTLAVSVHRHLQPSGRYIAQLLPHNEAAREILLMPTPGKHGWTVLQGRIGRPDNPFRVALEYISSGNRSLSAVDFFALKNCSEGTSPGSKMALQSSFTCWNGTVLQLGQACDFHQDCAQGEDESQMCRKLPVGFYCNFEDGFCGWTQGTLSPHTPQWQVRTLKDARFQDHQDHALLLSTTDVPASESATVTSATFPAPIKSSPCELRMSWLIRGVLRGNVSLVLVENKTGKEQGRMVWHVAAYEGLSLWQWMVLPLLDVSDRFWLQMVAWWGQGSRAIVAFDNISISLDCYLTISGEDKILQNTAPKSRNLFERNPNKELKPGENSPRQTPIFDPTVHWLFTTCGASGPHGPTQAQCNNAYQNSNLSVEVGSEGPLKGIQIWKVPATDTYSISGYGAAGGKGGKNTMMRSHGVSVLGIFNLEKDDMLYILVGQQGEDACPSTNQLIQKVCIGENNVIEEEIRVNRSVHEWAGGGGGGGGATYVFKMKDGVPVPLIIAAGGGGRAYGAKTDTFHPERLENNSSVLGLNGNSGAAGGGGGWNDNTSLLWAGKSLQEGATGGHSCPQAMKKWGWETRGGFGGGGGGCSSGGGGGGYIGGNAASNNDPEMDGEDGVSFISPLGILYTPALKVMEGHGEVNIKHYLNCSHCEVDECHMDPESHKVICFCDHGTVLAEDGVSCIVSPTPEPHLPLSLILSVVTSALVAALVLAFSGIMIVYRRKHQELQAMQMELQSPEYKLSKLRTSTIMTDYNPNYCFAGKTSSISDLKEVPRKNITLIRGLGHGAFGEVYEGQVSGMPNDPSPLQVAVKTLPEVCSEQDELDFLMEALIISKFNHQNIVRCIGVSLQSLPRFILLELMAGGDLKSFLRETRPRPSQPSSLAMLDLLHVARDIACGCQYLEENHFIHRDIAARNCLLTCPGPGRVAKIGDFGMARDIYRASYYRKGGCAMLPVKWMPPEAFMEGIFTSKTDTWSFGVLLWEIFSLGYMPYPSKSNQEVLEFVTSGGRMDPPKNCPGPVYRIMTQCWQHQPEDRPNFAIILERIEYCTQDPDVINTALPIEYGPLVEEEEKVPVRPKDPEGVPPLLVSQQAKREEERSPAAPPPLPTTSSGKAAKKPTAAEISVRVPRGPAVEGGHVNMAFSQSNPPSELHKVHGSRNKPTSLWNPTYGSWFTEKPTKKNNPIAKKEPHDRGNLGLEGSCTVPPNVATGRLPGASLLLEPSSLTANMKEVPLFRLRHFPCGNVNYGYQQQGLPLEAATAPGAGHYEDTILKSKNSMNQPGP
As to the kind of experiment: ALK HTRF kinase assay. To be noted: compound at a concentration of 500 nM or 1 mM (not specified); cells shown as percentage. The procedure, abridged:
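Recombinant human ALK phosphorylated a biotinylated synthetic peptide. Phosphotyrosine was detected by TR-FRET between a Eu-labelled anti-phosphotyrosine antibody and streptavidin-allophycocyanin. IC50 values came from fitting signal against inhibitor concentration to a four-parameter logistic equation with variable Hill slope.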

T2 sequence (O60674 828-1132): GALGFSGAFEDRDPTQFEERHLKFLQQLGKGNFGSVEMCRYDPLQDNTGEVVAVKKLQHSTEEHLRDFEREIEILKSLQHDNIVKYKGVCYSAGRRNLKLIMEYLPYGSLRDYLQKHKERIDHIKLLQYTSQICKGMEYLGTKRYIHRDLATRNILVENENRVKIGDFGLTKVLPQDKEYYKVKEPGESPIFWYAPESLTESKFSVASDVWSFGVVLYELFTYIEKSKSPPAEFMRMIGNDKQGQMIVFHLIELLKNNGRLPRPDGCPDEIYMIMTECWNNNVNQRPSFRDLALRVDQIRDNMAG
T1 sequence (P23458 849-1154): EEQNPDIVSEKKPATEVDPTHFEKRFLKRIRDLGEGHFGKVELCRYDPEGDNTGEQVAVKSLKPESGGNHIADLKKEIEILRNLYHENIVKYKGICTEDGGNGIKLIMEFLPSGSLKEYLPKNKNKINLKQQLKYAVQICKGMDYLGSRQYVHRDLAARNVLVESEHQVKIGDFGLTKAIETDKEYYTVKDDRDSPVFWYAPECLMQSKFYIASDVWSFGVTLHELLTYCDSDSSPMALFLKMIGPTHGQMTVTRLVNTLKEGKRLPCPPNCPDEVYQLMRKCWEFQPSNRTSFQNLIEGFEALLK

Take `CC(C)C(=O)N1CC[C@H](NC(=O)Nc2ccc3cc2CCc2cccc(c2)Nc2ncc(Cl)c(n2)N3)C1` [Example B229, N-[6-Chloro-2,4,8,22-tetraazatetracyclo[14.3.1.1(3,7).1(9,13)]docosa-1(20),3(22),4,6,9(21),10,12,16,18-nonaen-12-yl]-N′-[(3S)-1-isobutyrylpyrrolidin-3-yl]urea trifluoroacetate]: the IC50 in test [1] amounted to 9 nM; in test [2], 17 nM; in test [3], 76 nM; at TYK2 it was 19 nM. Besides, in test [4], the “ALK % of inhibition at a concentration of 500 nM or 1 mM” value (“ALK % of inhibition” below) is 6.5%.
On to `O=C(Nc1ccc2cc1CCc1cccc(c1)Nc1ncc(Cl)c(n1)N2)N[C@H]1CCN(C(=O)c2ccno2)C1` [Example B230, N-[6-Chloro-2,4,8,22-tetraazatetracyclo[14.3.1.1(3,7).1(9,13)]docosa-1(20),3(22),4,6,9(21),10,12,16,18-nonaen-12-yl]-N′-[(3S)-1-(isoxazol-5-ylcarbonyl)pyrrolidin-3-yl]urea trifluoroacetate], for which the IC50 in test [1] was found to be 2 nM; in test [2] it was 7 nM; in test [3], 50 nM; against TYK2 it was 15 nM. For the same compound, the “ALK % of inhibition” value in test [4] is on record as 11%.
The like results for `O=C(Nc1ccc2cc1CCc1cccc(c1)Nc1ncc(Cl)c(n1)N2)N[C@H]1CCN(C(=O)c2nccs2)C1` [Example B231, N-[6-Chloro-2,4,8,22-tetraazatetracyclo[14.3.1.1(3,7).1(9,13)]docosa-1(20),3(22),4,6,9(21),10,12,16,18-nonaen-12-yl]-N′-[(3S)-1-(1,3-thiazol-2-ylcarbonyl)pyrrolidin-3-yl]urea trifluoroacetate] were, in that order, 4 nM, 5.5 nM, 65 nM, 16 nM and 8.1%.
The matching figures for `Cn1ccc(C(=O)N2CC[C@H](NC(=O)Nc3ccc4cc3CCc3cccc(c3)Nc3ncc(Cl)c(n3)N4)C2)n1` [Example B232, N-[6-Chloro-2,4,8,22-tetraazatetracyclo[14.3.1.1(3,7).1(9,13)]docosa-1(20),3(22),4,6,9(21),10,12,16,18-nonaen-12-yl]-N′-{(3S)-1-[(1-methyl-1H-pyrazol-3-yl)carbonyl]pyrrolidin-3-yl}urea bis(trifluoroacetate)]: 4 nM, 11 nM, 72 nM, 26 nM and 10%.
The matching figures for `O=C(Nc1ccc2cc1CCc1cccc(c1)Nc1ncc(Cl)c(n1)N2)N[C@H]1CCN(C(=O)c2ccccn2)C1` [Example B233, N-[6-Chloro-2,4,8,22-tetraazatetracyclo[14.3.1.1(3,7).1(9,13)]docosa-1(20),3(22),4,6,9(21),10,12,16,18-nonaen-12-yl]-N′-[(3S)-1-(pyridin-2-ylcarbonyl)pyrrolidin-3-yl]urea bis(trifluoroacetate)]: 7 nM, 11 nM, 102 nM, 24 nM and 5.8%.
Turning to `O=C(Nc1ccc2cc1CCc1cccc(c1)Nc1ncc(Cl)c(n1)N2)N[C@H]1CCN(C(=O)c2ccncc2)C1` [Example B234, N-[6-Chloro-2,4,8,22-tetraazatetracyclo[14.3.1.1(3,7).1(9,13)]docosa-1(20),3(22),4,6,9(21),10,12,16,18-nonaen-12-yl]-N′-[(3S)-1-isonicotinoylpyrrolidin-3-yl]urea bis(trifluoroacetate)], the IC50 is 4 nM in test [1], 6.5 nM in test [2], 40 nM in test [3] and 11 nM at TYK2. In addition, the “ALK % of inhibition” value in test [4] is given as 31%.
The like results for `N#Cc1ccc(C(=O)N2CC[C@H](NC(=O)Nc3ccc4cc3CCc3cccc(c3)Nc3ncc(Cl)c(n3)N4)C2)cc1` [Example B235, N-[6-Chloro-2,4,8,22-tetraazatetracyclo[14.3.1.1(3,7).1(9,13)]docosa-1(20),3(22),4,6,9(21),10,12,16,18-nonaen-12-yl]-N′-[(3S)-1-(4-cyanobenzoyl)pyrrolidin-3-yl]urea trifluoroacetate] were, in that order, 6 nM, 21 nM, 213 nM, 36 nM and 7.3%.
The like results for `CC(C)(C)OC(=O)N[C@@H]1CCN(C(=O)Nc2ccc3cc2CCc2cccc(c2)Nc2ncc(Cl)c(n2)N3)C1` [Example B236, tert-Butyl [(3R)-1-({[6-chloro-2,4,8,22-tetraazatetracyclo[14.3.1.1(3,7).1(9,13)]docosa-1(20),3(22),4,6,9(21),10,12,16,18-nonaen-12-yl]amino}carbonyl)pyrrolidin-3-yl]carbamate] were, in that order, 1.7 nM, 1.7 nM, 9.7 nM, 6.1 nM and 29%.
In the case of `CC(C)(C)OC(=O)N1CCCC(NC(=O)Nc2ccc3cc2CCc2cccc(c2)Nc2ncc(Cl)c(n2)N3)C1` (stereo not drawn) [Example B237, tert-Butyl 3-[({[6-chloro-2,4,8,22-tetraazatetracyclo[14.3.1.1(3,7).1(9,13)]docosa-1(20),3(22),4,6,9(21),10,12,16,18-nonaen-12-yl]amino}carbonyl)amino]piperidine-1-carboxylate], the IC50 in test [1] amounted to 7.9 nM; in test [2], 18 nM; in test [3] it was 122 nM; on TYK2 it was 16 nM. In addition, in test [4], the “ALK % of inhibition” value is 6.2%.
The matching figures for `O=C(Nc1ccc2cc1CCc1cccc(c1)Nc1ncc(Cl)c(n1)N2)NC1CCCNC1` (stereo not drawn) [Example B238, N-[6-Chloro-2,4,8,22-tetraazatetracyclo[14.3.1.1(3,7).1(9,13)]docosa-1(20),3(22),4,6,9(21),10,12,16,18-nonaen-12-yl]-N′-piperidin-3-ylurea bis(trifluoroacetate)]: 8.1 nM, 17 nM, 274 nM, 50 nM and 15%.
The like results for `CN(C)C(=O)Nc1ccc2cc1CCc1cccc(c1)Nc1ncc(Cl)c(n1)N2` [Example B239, N′-[6-Chloro-2,4,8,22-tetraazatetracyclo[14.3.1.1(3,7).1(9,13)]docosa-1(20),3(22),4,6,9(21),10,12,16,18-nonaen-12-yl]-N,N-dimethylurea trifluoroacetate] were, in that order, 6.4 nM, 8.9 nM, 35 nM, 24 nM and 21%.
The matching figures for `O=C(Nc1ccc2cc1CCc1cccc(c1)Nc1ncc(Cl)c(n1)N2)NC1CC1` [Example B240, N-[6-Chloro-2,4,8,22-tetraazatetracyclo[14.3.1.1(3,7).1(9,13)]docosa-1(20),3(22),4,6,9(21),10,12,16,18-nonaen-12-yl]-N′-cyclopropylurea trifluoroacetate]: 1.5 nM, 0.74 nM, 10 nM, 4 nM and 15%.

The IC50 is the concentration needed to halve the response being measured.
